Source: ChEMBL document CHEMBL5365504, “Psychoplastogens: A Novel Therapeutic Approach for Neurological Diseases and Disorders” (ACS Med Chem Lett, 2023)

What was measured:
Assay type in all cases: functional, cell-based
Settings in all cases: 72 h
Cortical neurone [1] = assay: Induction of neurite outgrowth in Wistar rat Cortical neuron cells assessed as increase in number of branch points incubated for 3 days by DAPI staining based high-content screening method
Cortical neurone [2] = assay: Induction of neurite outgrowth in Wistar rat Cortical neuron cells assessed as increase in neurite length incubated for 3 days by DAPI staining based high-content screening method
Cortical neurone [3] = assay: Induction of neurite outgrowth in Wistar rat Cortical neuron cells assessed as increase in neurite number incubated for 3 days by DAPI staining based high-content screening method

SMILES | EC50 (Cortical neurone [1]) [µM] | EC50 (Cortical neurone [2]) [µM] | EC50 (Cortical neurone [3]) [µM]
C[C@@H](N)Cn1ccc2cc(OCc3ccc(F)cc3)ccc21 | 0.01 | 0.01 | 0.01
CCN(CC)[C@H](C)Cn1ccc2cc(OCc3ccccc3)ccc21 | < 0.01 | < 0.01 | < 0.01
C[C@@H](N)Cn1ccc2cc(OCc3ccccc3F)ccc21 | < 0.01 | 0.01 | < 0.01
C[C@H](Cn1ccc2cc(OCc3cccc(F)c3)ccc21)N(C)C | < 0.01 | < 0.01 | < 0.01
C[C@@H](N)Cn1ccc2cc(OCc3cccc(F)c3)ccc21 | < 0.01 | < 0.01 | 0.01
C[C@H](Cn1ccc2nc(OCc3ccccc3)ccc21)N(C)C | < 0.01 | < 0.01 | < 0.01
C[C@H](Cn1ccc2cc(OCc3ccccc3)ccc21)N1CCCC1 | 0.01 | < 0.01 | < 0.01
C[C@H](Cn1ccc2cc(OCc3ccc(F)cc3)ccc21)N(C)C | < 0.01 | < 0.01 | < 0.01
C[C@H](Cn1ccc2cc(OCc3ccccc3F)ccc21)N(C)C | < 0.01 | < 0.01 | < 0.01
C[C@H](Cn1ccc2cc(OCc3ccccc3)ccc21)N(C)C | 0.01 | < 0.01 | 0.01
CN[C@H](C)Cn1ccc2cc(OCc3ccccc3)ccc21 | < 0.01 | < 0.01 | < 0.01
